The subject of one test is Balb/c mice. Put plainly: Light/dark box test in mice (anxiolytic effect). It is filed as in vivo. As to conditions: for anxiolytic effect in the light/dark box test: 30 mg/kg, oral administration; for minimal effective dose: Mus musculus, 1 h, minimum dose significantly prolonging time spent in the light box vs vehicle, oral, one hour prior to test. How it is done:
The light/dark box test in mice was carried out according to a modified method of Belzung C., Misslin R., Vogel E. et al. (Reference; Behavioural effects of the benzodiazepine receptor partial agonist RO16-6028 in mice, Psychopharmacology, 97, 388-391, 1989). The test apparatus used was a light/dark box comprising a covered black acrylic box (dark box; 15×10×20 cm), an uncovered white acrylic box (light box; 15×20×20 cm) and a black acrylic tunnel (10×7×4.5 cm) which connects dark box and light box and enables a mouse to freely move back and forth between the dark box and light box. In this test apparatus, however, a transparent acrylic polymer was used for the front side (20×20 cm) and back side (20×20 cm) of the light box to allow observation of the behavior. After setting illumination so that the light intensity of the floor of the light box was 150 Lux, 5-week-old male Balb/c mice (purchased from Nihon Charles River) were introduced into the dark box at the beginning of the test. For the test, the tested compound was suspended in 5% dimethylsulfoxide, 5% Cremopor EL and 90% physiological saline and orally administered to the test animals one hour prior to the start of the test.
The time spent in the light box was measured as an index of the anxiolytic effect, with “spend in the light box” defined as the state in which all limbs of the mice were on the floor of the light box. […] The statistical significance between the vehicle-treated group and the test compound-treated groups was analyzed by one way analysis of variance followed by Dunnett multiple comparison when multiple doses were set for the same test, and by the Mann-Whitney U test when only one dose was set.

The next test has as its target T1, human CRFR1 (Homo sapiens, UniProt P34998).
T1 construct: The full-length CRFR1 gene was obtained by PCR using human brain cDNA library; expressed in transfected cells; pcDNA3.1 expression vector; membrane fraction used
T1 sequence (P34998 24-415): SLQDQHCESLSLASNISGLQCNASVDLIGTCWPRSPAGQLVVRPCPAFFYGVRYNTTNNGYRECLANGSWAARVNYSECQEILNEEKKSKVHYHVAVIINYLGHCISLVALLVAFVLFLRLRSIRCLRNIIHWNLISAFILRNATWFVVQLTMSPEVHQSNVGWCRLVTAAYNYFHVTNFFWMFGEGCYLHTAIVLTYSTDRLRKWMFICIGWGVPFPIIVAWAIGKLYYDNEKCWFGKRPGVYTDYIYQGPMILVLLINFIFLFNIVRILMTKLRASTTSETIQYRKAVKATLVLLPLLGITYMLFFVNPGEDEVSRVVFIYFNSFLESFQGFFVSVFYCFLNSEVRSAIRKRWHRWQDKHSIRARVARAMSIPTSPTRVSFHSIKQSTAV
Put plainly: CRFR1 binding test (SPA competition with 125I-CRF, membrane fraction of CRFR1-expressing HEK293 cells). As to conditions: 100 pM 125I-CRF, room temperature, read-out: CRF1 receptor binding capacity IC50. The protocol: The binding capacities of the compounds of the invention for CRF1 receptor (CRFR1) were evaluated.
The membrane fraction of human CRFR1 high-expressing cells was used as the material for a CRFR1 binding experiment. The CRFR1-expressing cells were prepared in the following manner. The full-length CRFR1 gene was obtained by PCR using human brain cDNA library (QuickClone™ Clontech). The obtained DNA fragment was inserted into a cloning vector and the nucleotide sequence was confirmed. cDNA having the proper nucleotide sequence was linked to an expression vector (pcDNA3.1™, Invitrogen). The CRFR1 expression vector was introduced into HEK293 cell, and the resistant cells which proliferated in culture medium containing G418 (1 mg/ml) were cloned by the limiting dilution method. Out of the cloned cells, cells having high binding affinity between the membrane fraction per unit of protein and sauvagine were selected according to the following binding experiment. And the selected cells were used for the experiments.
The cloned cells obtained in (1) were collected and suspended in ice-cooled membrane buffer (50 mM Tris-HCl, 5 mM MgCl2, 2 mM EGTA, 1 mM DTT, protease inhibitor cocktail (COMPLETE™, Roche Diagnostics) pH 7.3), and then the cells were disrupted with a Polytron ([…]) while cooling on ice (level 5, 10 seconds, 2-5 times, ice-cooling) and then centrifuged (2,000 rpm, 5 minutes, 4° C.), after which the supernatant was collected. Membrane buffer was added to the precipitate, and the mixture was subjected to Polytron treatment (same conditions as above) and centrifuged (same conditions as above), and the obtained supernatant was collected and combined with the previous supernatant. This was centrifuged (13,000 rpm (18,000×g), 30 minutes, 4° C.) to prepare cell membranes. The precipitated cell membranes were suspended in membrane buffer and disrupted with a Polytron (level 5, 10 seconds, 3-5 times, ice-cooling) to prepare a dispersed suspension. The protein assay was performed.
The following method (1) or (2) was performed for use as the cell membrane fraction.
(1) The above dispersed suspension was diluted with membrane buffer containing 0.1% BSA to a protein concentration of 200 μg/ml, for use as the cell membrane fraction
(2) The above dispersed suspension was frozen for preservation, and if needed, thawed, re-dispersed and diluted for used as the cell membrane fraction.
A binding competition experiment with CRF was conducted by the SPA (GE Healthcare) method using a 96-well plate. A mixture of 5 μg of the cell membrane fraction protein, 1 mg of SPA beads and 100 pM ^125I-CRF (Perkin Elmer) was allowed to stand at room temperature for at least 2 hours in the presence of a test compound, and the radioactivity of each well after centrifugation (1,200 rpm (260×g), 5 minutes, room temperature) was measured with a TopCount (registered trademark; Perkin Elmer).
The radioactivity with addition of a 4,000-fold excess of non-radioactive sauvagine as the nonspecific binding was subtracted from each value, and the resulting value was expressed as a percentage (% of control), with 100% as the radioactivity without addition of the test compound (control). The IC50 value was calculated from a binding inhibition curve drawn with test compound concentration on the horizontal axis and % (% of control) on the vertical axis.

As a reminder, the minimal effective dose is the lowest level tested that produced the effect sought. A low value points to greater potency. The term IC50 denotes the concentration needed to halve the response being measured.

Turning to `CCCCN(c1c(OC)nn2c(-c3c(OC)cc(COC)cc3OC)csc12)C1CCOCC1` [Example 1, N-Butyl-3-[2,6-dimethoxy-4-(methoxymethyl)phenyl]-6-methoxy-N-(tetrahydro-2H-pyran-4-yl)pyrazolo[5,1-b][1,3]thiazole-7-amine], in the test on Balb/c mice, the “anxiolytic effect in the light/dark box test” value is “statistically significant effects” and the minimal effective dose is 30 mg/kg.
The matching figures for `CCCCN(c1c(OC)nn2c(-c3c(OC)cc(COCC)cc3OC)csc12)C1CCOCC1` [Example 2, N-Butyl-3-[4-(ethoxymethyl)-2,6-dimethoxyphenyl]-6-methoxy-N-(tetrahydro-2H-pyran-4-yl)pyrazolo[5,1-b][1,3]thiazole-7-amine]: “statistically significant effects” and 30 mg/kg.
On to `CCOCc1cc(OC)c(-c2csc3c(N(CCC4CC4)C4CCOCC4)c(OC)nn23)c(OC)c1` [Example 3, N-(2-Cyclopropylethyl)-3-[4-(ethoxymethyl)-2,6-dimethoxyphenyl]-6-methoxy-N-(tetrahydro-2H-pyran-4-yl)pyrazolo[5,1-b][1,3]thiazole-7-amine], for which the IC50 on human CRFR1 was determined as 65 nM. In the test on Balb/c mice, the “anxiolytic effect in the light/dark box test” value is on record as “statistically significant effects” and the minimal effective dose is 30 mg/kg.
For `CCOCc1cc(OC)c(-c2csc3c(N(CC4CCC4)C4CCOCC4)c(OC)nn23)c(OC)c1` [Example 4, N-(Cyclobutylmethyl)-3-[4-(ethoxymethyl)-2,6-dimethoxyphenyl]-6-methoxy-N-(tetrahydro-2H-pyran-4-yl)pyrazolo[5,1-b][1,3]thiazole-7-amine] the same measures were 34 nM, “statistically significant effects” and 30 mg/kg.
Regarding `CCOCc1cc(OC)c(-c2csc3c(N(CC4CC4)C4CCCOC4)c(OC)nn23)c(OC)c1` (stereo not drawn) [Example 5, N-(Cyclopropylmethyl)-3-[4-(ethoxymethyl)-2,6-dimethoxyphenyl]-6-methoxy-N-(tetrahydro-2H-pyran-3-yl)pyrazolo[5,1-b][1,3]thiazole-7-amine], the half-inhibitory concentration (IC50) at human CRFR1 was 29 nM. In addition, in the test with Balb/c mice, the “anxiolytic effect in the light/dark box test” value is reported as “statistically significant effects” and the minimal effective dose amounted to 30 mg/kg.
As for `CCCN(c1c(OC)nn2c(-c3c(OC)cc(COCC)cc3OC)csc12)C1CCCOC1` (stereo not drawn) [Example 6, 3-[4-(Ethoxymethyl)-2,6-dimethoxyphenyl]-6-methoxy-N-propyl-N-(tetrahydro-2H-pyran-3-yl)pyrazolo[5,1-b][1,3]thiazole-7-amine], the IC50 at human CRFR1 amounted to 39 nM.
On the same count and under the same terms, under `COCc1cc(OC)c(-c2csc3c(N(CC4CCC4)C4CCOCC4)c(OC)nn23)c(OC)c1` [Example 7, N-(Cyclobutylmethyl)-3-[2,6-dimethoxy-4-(methoxymethyl)phenyl]-6-methoxy-N-(tetrahydro-2H-pyran-4-yl)pyrazolo[5,1-b][1,3]thiazole-7-amine] stands 46 nM; under `CCCCCN(c1c(OC)nn2c(-c3c(OC)cc(COC)cc3OC)csc12)C1CCOCC1` [Example 8, 3-[2,6-Dimethoxy-4-(methoxymethyl)phenyl]-6-methoxy-N-pentyl-N-(tetrahydro-2H-pyran-4-yl)pyrazolo[5,1-b][1,3]thiazole-7-amine], 63 nM.
`COCc1cc(OC)c(-c2csc3c(N(CC4CC4)C4CCOCC4)c(OC)nn23)c(OC)c1` [Example 9, N-(Cyclopropylmethyl)-3-[2,6-dimethoxy-4-(methoxymethyl)phenyl]-6-methoxy-N-(tetrahydro-2H-pyran-4-yl)pyrazolo[5,1-b][1,3]thiazole-7-amine]: in the test with Balb/c mice, the “anxiolytic effect in the light/dark box test” value was “statistically significant effects” and the minimal effective dose was found to be 30 mg/kg.
The matching figures for `CCCN(c1c(OC)nn2c(-c3c(OC)cc(COC)cc3OC)csc12)C1CCOCC1` [Example 10, 3-[2,6-Dimethoxy-4-(methoxymethyl)phenyl]-6-methoxy-N-propyl-N-(tetrahydro-2H-pyran-4-yl)pyrazolo[5,1-b][1,3]thiazole-7-amine]: “statistically significant effects” and 30 mg/kg.
Take `COCc1cc(OC)c(-c2csc3c(N(CC4CC4)C4CCCOC4)c(OC)nn23)c(OC)c1` (stereo not drawn) [Example 11, N-(Cyclopropylmethyl)-3-[2,6-dimethoxy-4-(methoxymethyl)phenyl]-6-methoxy-N-(tetrahydro-2H-pyran-3-yl)pyrazolo[5,1-b][1,3]thiazole-7-amine]: on human CRFR1, the half-maximal inhibitory concentration (IC50) came out at 37 nM.
Turning to `COCc1cc(OC)c(-c2csc3c(N(CC4CC4C)C4CCOCC4)c(OC)nn23)c(OC)c1` (stereo not drawn) [Example 12, 3-[2,6-Dimethoxy-4-(methoxymethyl)phenyl]-6-methoxy-N-[(2-methylcyclopropyl)methyl]-N-(tetrahydro-2H-pyran-4-yl)pyrazolo[5,1-b][1,3]thiazole-7-amine], at human CRFR1, the IC50 is 82 nM.
`CCCN(c1c(OC)nn2c(-c3c(Cl)cc(COC)cc3OC)csc12)C1CCOCC1` [Example 13, 3-[2-Chloro-6-methoxy-4-(methoxymethyl)phenyl]-6-methoxy-N-propyl-N-(tetrahydro-2H-pyran-4-yl)pyrazolo[5,1-b][1,3]thiazole-7-amine]: in the test on Balb/c mice, the “anxiolytic effect in the light/dark box test” value is “statistically significant effects” and the minimal effective dose was 30 mg/kg.
Turning to `COc1cc(C#N)cc(OC)c1-c1csc2c(N(CC3CCOCC3)CC3CC3)c(OC)nn12` [Example 15, 4-{7-[(Cyclopropylmethyl)(tetrahydro-2H-pyran-4-ylmethyl)amino]-6-methoxypyrazolo[5,1-b][1,3]thiazol-3-yl}-3,5-dimethoxybenzonitrile], the IC50 on human CRFR1 came out at 70 nM.
For `COc1cc(OC)c(-c2csc3c(N(CC4CCOCC4)CC4CC4)c(OC)nn23)c(OC)c1` [Example 16, N-(Cyclopropylmethyl)-6-methoxy-N-(tetrahydro-2H-pyran-4-ylmethyl)-3-(2,4,6-trimethoxyphenyl)-pyrazolo[5,1-b][1,3]thiazole-7-amine], the IC50 at human CRFR1 is 29 nM.
On the same count and under the same terms, under `CCCN(c1c(OC)nn2c(-c3c(OC)cc(COC4CCC4)cc3OC)csc12)C1CCOCC1` [Example 17, 3-{4-[(Cyclobutyloxy)methyl]-2,6-dimethoxyphenyl}-6-methoxy-N-propyl-N-(tetrahydro-2H-pyran-4-yl)pyrazolo[5,1-b][1,3]thiazole-7-amine] stands 36 nM.

The values above are taken from patent US8431603B2, “3-phenylpyrazolo[5,1-b]thiazole compounds” (Eisai R&D Management Co., Ltd., priority 2008, dated 2013).
